Results on one molecule are retold here after patent US9763908B2, “Composition containing monoacetyldiglyceride compound as active ingredient for preventing or treating atopic dermatitis” (ENZYCHEM LIFESCIENCES CORPORATION, priority 2013, dated 2017).

Data set [1] has as its system DNCB-induced atopic dermatitis in Balb/c mouse. Description: Visual inspection of the degree of atopic disease in the DNCB-induced mouse model. It counts as in vivo. As to conditions: score 0 to 12. The method, then: (§1) DNCB (1-Chloro-2,4-dinitrobenzene, Sigma Aldrich) was diluted to 0.2% by the solvent in which olive oil and acetone were mixed in a ratio of 1:4. Diluted DNCB was applied onto back of each 7-week-old Balb/c mouse whose hairs on back were removed. During the first week application was made seven times continuously, and from the second week, application was made every two days to induce atopy.
Atopic disease models commonly used in the laboratory is a technique that induces contact Hypersensitivity (CHS) by sensitization to DNCB (1-Chloro-2,4-dinitro-benzene). This technique is a technique of inducing atopic by diluting DNCB with a solvent in which acetone and olive oil are mixed in a ratio of 4:1 to be 0.2%, and then smearing the diluted on the skin, and is for the experiment for adjusting and maintaining the expression time so that artificially severe atopy-like appearance appears could be observed two weeks after the smearing. The degree of atopic disease was evaluated by dividing the state of erythema/emorrhage, scarring/dryness, edema), excoriation/erosion which are induced on the skin, respectively into three steps (0=null, 1=mild, 2=moderate, 3=severe) and then assigning the score up to 12 from zero. It was induced in the experimental group and the control group that the time when severe atopic status ((visual inspection index of 10) is reached was two weeks after the smearing of DNCB. Further, in order to maintain this condition, after two weeks, DNCB smearing was performed every two days.
FIG. 4 is a photograph showing the degree of atopic disease for 3 weeks in mice of the EC-18 administration group (test group) and the mice of olive oil administration group (control group). […] In contrast, in the test group the administration of EC-18, visual inspection index was changed to 1 point after one week, 8 points after two weeks and 3 points after three weeks.

The next data set concerns IFN-γ. Description: IFN-γ from ConA-activated lymphocytes of normal healthy people given EC-18 for four weeks (ELISA). It is filed as in vivo, human. How it is done: (§2) EC-18 was administered to the normal healthy people (36 people) four weeks. EC-18 Lymphocytes separated from the blood before administration and after administration were incubated with ConA (concanavalin A). In order to measure the cytokine (IFN-γ and IL-4) which is separated from the lymphocyte (T cell) activated by Con A, culture medium was incubated for 42 hours, and were stored frozen. Purified antibody (capture antibody) of cytokine to be measured was dispensed to well (Nunc-immuno module, polysorp) by 0.2 μg/well, and left overnight at 4° C. to coat antigen. After well washing, blocking buffer (1% bovine serum albumin) treatment was performed for about 1 hour to inhibit the nonspecific binding. After washing the well, a cell culture solution was placed into each well and the antibody was combined with coating antigen for 2 hours. […] After approximately 10-30 minutes, stop solution was added into the well and absorbance at 450-570 nm was measured with Automatic Microplate reader (Molecular Devices, CA, USA). In the same manner, absorbance according to cytokine solution concentration was measured to plot standard curve, and the amount of cytokine contained in the sample was calculated by substituting the absorbance of the sample group. The change amount of cytokine calculated in this manner and significance (P<0.05) were shown in flowing Table 1 and FIGS. 5-6.
On the technique in general: ELISA stands for enzyme-linked immunosorbent assay.

The test system of the next data set is IgE. Description: IgE level in serum (ELISA) of mice with DNCB-induced atopic dermatitis after oral EC-18. It counts as in vivo, mouse. How it is done:
as §1
Using the serum separated from the mouse blood, was measured the expression levels of IgE in the ELISA method as shown in Experimental Example 1. In IgE ELISA for the mouse, IgE capture antibody (BD bioscience) was diluted with 1×PBS to 2 μg/ml, dispensed to each of 96-well plate (Thermo) by 200 μl, coated for 12 hours, washed using a wash buffer in which 0.05% tween 20 was diluted in 1×PBS. After washing three times, 1% BSA was dispensed to each well by 200 μl and blocking buffer was placed for 1 hour at room temperature (RT) conditions, and then final washing was performed._Thereafter, the serum obtained from the mice was dispensed to each well by 100 μl, and the wells were placed for reaction at room temperature for 1 hours after dispensing, and unreacted IgE is washed under the same conditions. […] When the color development is completed, the stop solution (2N H2SO4+DW) was dispensed by 50 μl, and the amount of color development at 450 nm wavelength was measured. […]

For data set [2], the system named is atopic symptoms in patients. Description: Observation of atopic symptom alleviation in patients with atopic. It is filed as in vivo, human. As to conditions: 500 mg/day; 2 weeks (severe symptoms) or 2 days (mild skin rash); FIGS. 7 and 8. How it is done: To patients with severe atopic symptoms, the EC-18 was administrated every day at a dose of 500 mg/day for 2 weeks and atopic symptoms change which was taken were shown in FIG. 7. To a patient having a mild skin rash, the EC-18 was administrated every day at a dose of 500 mg/day for 2 days and atopic symptoms change which was taken were shown in FIG. 8.

The subject of data set [3] is IL-4. Description: IL-4 level in serum (ELISA) of mice with DNCB-induced atopic dermatitis after oral EC-18. It is filed as in vivo, mouse. How it is done:
as §1
A mixture of EC-18 and olive oil was orally administrated to the mouse 7 times during the first week by 100 μl each time in dose of 2 mq/rat, and after then, for 11 times, was administered orally by 100 μl each time in dose of 1 mg/rat, that is the mixture was orally administrated totally 18 times. For the measurement of IL-4, blood was collected from veins under the eyes of mice treated, through ocular blood (Eye bleeding) method. […] After collecting the blood of about 350 μl in the EP tube, the blood was centrifuged to separate only serum and IL-4 present in the serum was analyzed by ELISA (enzyme-linked immunosorbent assay) method. […] When the color development is completed, the stop solution (2N H2SO4+DW) was dispensed by 100 μl, and the amount of color development at 450 nm wavelength was measured at ELISA Reader. […]

For data set [4] the following is noted: GLP toxicity test; stated as known; cited from earlier work.
The test system of data set [5] is IL-4. Briefly: IL-4 from ConA-activated lymphocytes of normal healthy people given EC-18 for four weeks (ELISA). It counts as in vivo, human. How it is done:
as §2

The subject of another data set is sepsis animal model. As to conditions: cecal-ligation-puncture sepsis model; stated as known; cited from earlier work.
Where [6] appears, read: DNCB-induced atopic dermatitis model animals.

SMILES strings stand for the structures.

Regarding `CCCCC/C=C\C/C=C\CCCCCCCC(=O)OC(COC(C)=O)COC(=O)CCCCCCCCCCCCCCC` (centres unmarked) [EC-18, 1-palmitoyl-2-linoleoyl-3-acetylglycerol], the visual inspection index in data set [1] (after one week, olive oil control 3 points) is recorded as 1 point; in data set [1] (after three weeks, olive oil control 6 points) it was 3 points; in data set [1] (after two weeks, olive oil control 10 points), 8 points. In the data set on IFN-γ (N = 36, four weeks of administration, before administration 686.4 ± 162.2, P 0.473), the “IFN-γ after EC-18 administration” value worked out at 611.9 ± 209.7 pg/mL. Further, in the data set with IFN-γ (normal subjects, 4 weeks, FIG. 6), the “expression level of Th1 cytokine (IFN-γ), in words” value is on record as “the change did not occur uniformly”. Further, the “IgE level compared to the untreated group (olive oil treatment group), in words” value in the data set on IgE (setting [6]) is “significantly decreased”. In the data set with IgE (serum, two weeks vs one week after administration, oral EC-18, olive oil control approximately 22%), the “reduction of IgE level” value is recorded as “about 50%”. In addition, the atopic symptoms change result in data set [2] is listed as “the atopic symptoms are relaxed”. Moreover, the “IL-4 level compared to the untreated group (olive oil treatment group), in words” value in the data set on IL-4 [3] (setting [6]) is “significantly decreased”. For the same molecule, the “reduction of IL-4 level” value in the data set on IL-4 [3] (serum, two weeks vs one week after administration, oral EC-18 in olive oil, olive oil control approximately 50%) is given as 80%. Further, the toxicity entry in data set [4] is on record as “no-toxicity”. Further, the “IL-4 after EC-18 administration” value in the data set on IL-4 [5] (N = 36, four weeks of administration, before administration 246.6 ± 186.9, P <0.001) turned out to be 96.1 ± 64.2 pg/mL. Further, the “expression level of Th2 cytokine (IL-4), in words” value in the data set on IL-4 [5] (normal subjects, 4 weeks, FIG. 5) is on record as “reduced the expression levels of Th2 cytokine (IL-4)”. The “survivability ratio of animals” value in the data set on sepsis animal model is given as “increases survivability ratio of animals”.
